{"source": "paper PMC8100298", "about": "“Histone deacetylase inhibitor resminostat in combination with sorafenib counteracts platelet-mediated pro-tumoral effects in hepatocellular carcinoma” (Scientific Reports, 2021)", "test_in_all_cases": "Efficacy screening assay", "assay_type_in_all_cases": "cell-based", "key": {"JIMT1": {"tested_on": "JIMT1", "details": "JIMT1, breast", "method": "(§1) The experiment was performed by Oncolead GmbH & Co. KG (Karlsfeld , Germany), based on a standardized screening procedure . Cell lines were purchased directly from the ATCC, NCI and DSMZ cell line c ollections. Cells used for the study had undergone less than 20 passages. To ensure the absence of potential contamination and wrong assignment, all cell lines were tested using a whole genome assay (Agilent, USA). All cell lines were grown as recommended by the suppliers and with addition of 100 U/mL penicillin G and 100 µg/mL; streptomycin. Cell growth and treatments were performed in Nunclon D 96 -well plates (NUNC, Germany). The optimal seeding density for each cell line was determined to ensure exponential growth for the duration of the experiment. All cells growing without anti-cancer agents were sub-conﬂuent by the end of the treatment, as determined by visual inspection.\n(§2) After an initial 24 h pre-growth period, the compounds were added. The vehicle concentration […]\n(§3) was 0.1% DMSO. After incubation at 37°C for 72 h, the culture medium was aspirated, and the cells were precipitated by the addition of 10% trichloroacetic acid (Sigma-Aldrich, Missouri, US). After overnight incubation at 4°C, the plates were washed three times with deionized water. The precipitates were then stained with SRB (0.4% wt/v sulforhodamine B solution in 1% acetic acid, Sigma-Aldrich, Missouri, US). Afterwards, the plates were washed six times with 1% acetic acid to remove unbound stain. After drying the plates at room temperature, the bound SRB was solubilized with 10 mM Tris base and the optical density was measured at 520 nm using a Victor2 plate reader (Perkin Elmer, Germany). Blank OD values were subtracted from mean OD values for each concentration. The nonlinear curve ﬁtting and EC50 calculations were per formed using XLﬁt and algorithm “205” (ID Business […]\n(§4) Multiplicity adjusted p-values with 95% confidence interval was applied. For the invasion assays in Figure 4, one-way ANOVA with multiple comparison testing (Tukey) was performed. Multiplicity adjusted p-values with 95% confidence interval was applied. The adjusted p-values comparing vehicle control without vs. with platelets and compound"}, "MCF7": {"tested_on": "MCF7", "details": "MCF7, breast", "method": "as §1, §2, §3, §4"}, "MDAMB468": {"tested_on": "MDAMB468", "details": "MDAMB468, breast", "method": "as §1, §2, §3, §4"}, "MDAMB436": {"tested_on": "MDAMB436", "details": "MDAMB436, breast", "method": "as §1, §2, §3, §4"}, "MDAMB435": {"tested_on": "MDAMB435", "details": "MDAMB435, skin", "method": "as §1, §2, §3, §4"}, "J82": {"tested_on": "J82", "details": "J82, bladder", "method": "as §1, §2, §3, §4"}, "MDAMB231": {"tested_on": "MDAMB231", "details": "MDAMB231, breast", "method": "as §1, §2, §3, §4"}, "MHHES1": {"tested_on": "MHHES1", "details": "MHHES1, bone", "method": "as §1, §2, §3, §4"}, "LOVO": {"tested_on": "LOVO", "details": "72 h, colon", "method": "as §1, §2, §3, §4"}, "MG63": {"tested_on": "MG63", "details": "MG63, bone", "method": "as §1, §2, §3, §4"}, "IMR90": {"tested_on": "IMR90", "details": "Homo sapiens, IMR-90, IMR90, lung, 72 h", "method": "as §1, §2, §3, §4"}, "IGROV1": {"tested_on": "IGROV1", "details": "IGROV1, ovary", "method": "as §1, §2, §3, §4"}}, "note": "Read-outs that look alike come from different tables or passages of the source."}
{"smiles": "CN(C)Cc1ccc(S(=O)(=O)n2ccc(/C=C/C(=O)NO)c2)cc1", "note": "[resminostat, Resminostat]", "values": [{"measurement": "EC50", "setting": "JIMT1; Homo sapiens, JIMT-1, 72 h, log of EC50, negative, read-out: log(EC50) (converted)", "value": 3.02, "unit": "µM"}, {"measurement": "EC50", "setting": "JIMT1; Homo sapiens, JIMT-1, 72 h, read-out: EC50", "value": 3.03, "unit": "µM"}, {"measurement": "EC50", "setting": "JIMT1; 72 h, read-out: EC50", "value": 3.03, "unit": "µM"}, {"measurement": "EC50", "setting": "MCF7; Homo sapiens, MCF7, 72 h, log of EC50, negative, read-out: log(EC50) (converted)", "value": 1.7, "unit": "µM"}, {"measurement": "EC50", "setting": "MCF7; Homo sapiens, MCF7, 72 h, read-out: EC50", "value": 1.69, "unit": "µM"}, {"measurement": "EC50", "setting": "MCF7; 72 h, read-out: EC50", "value": 1.69, "unit": "µM"}, {"measurement": "EC50", "setting": "MDAMB468; Homo sapiens, MDA-MB-468, 72 h, log of EC50, negative, read-out: log(EC50) (converted)", "value": 2.29, "unit": "µM"}, {"measurement": "EC50", "setting": "MDAMB468; Homo sapiens, MDA-MB-468, 72 h, read-out: EC50", "value": 2.3, "unit": "µM"}, {"measurement": "EC50", "setting": "MDAMB468; 72 h, read-out: EC50", "value": 2.3, "unit": "µM"}, {"measurement": "EC50", "setting": "MDAMB436; Homo sapiens, MDA-MB-436, 72 h, log of EC50, negative, read-out: log(EC50) (converted)", "value": 7.08, "unit": "µM"}, {"measurement": "EC50", "setting": "MDAMB436; Homo sapiens, MDA-MB-436, 72 h, read-out: EC50", "value": 7.15, "unit": "µM"}, {"measurement": "EC50", "setting": "MDAMB436; 72 h, read-out: EC50", "value": 7.15, "unit": "µM"}, {"measurement": "EC50", "setting": "MDAMB435; Homo sapiens, MDA-MB-435, 72 h, log of EC50, negative, read-out: log(EC50) (converted)", "value": 2.09, "unit": "µM"}, {"measurement": "EC50", "setting": "MDAMB435; Homo sapiens, MDA-MB-435, 72 h, read-out: EC50", "value": 2.11, "unit": "µM"}, {"measurement": "EC50", "setting": "MDAMB435; 72 h, read-out: EC50", "value": 2.11, "unit": "µM"}, {"measurement": "EC50", "setting": "J82; Homo sapiens, J82, 72 h, log of EC50, negative, read-out: log(EC50) (converted)", "value": 5.62, "unit": "µM"}, {"measurement": "EC50", "setting": "J82; Homo sapiens, J82, 72 h, read-out: EC50", "value": 5.68, "unit": "µM"}, {"measurement": "EC50", "setting": "J82; 72 h, read-out: EC50", "value": 5.68, "unit": "µM"}, {"measurement": "EC50", "setting": "MDAMB231; Homo sapiens, MDA-MB-231, 72 h, log of EC50, negative, read-out: log(EC50) (converted)", "value": 2.34, "unit": "µM"}, {"measurement": "EC50", "setting": "MDAMB231; Homo sapiens, MDA-MB-231, 72 h, read-out: EC50", "value": 2.36, "unit": "µM"}, {"measurement": "EC50", "setting": "MDAMB231; 72 h, read-out: EC50", "value": 2.36, "unit": "µM"}, {"measurement": "EC50", "setting": "MHHES1; Homo sapiens, MHH-ES-1, 72 h, log of EC50, negative, read-out: log(EC50) (converted)", "value": 1.38, "unit": "µM"}, {"measurement": "EC50", "setting": "MHHES1; Homo sapiens, MHH-ES-1, 72 h, read-out: EC50", "value": 1.38, "unit": "µM"}, {"measurement": "EC50", "setting": "MHHES1; 72 h, read-out: EC50", "value": 1.38, "unit": "µM"}, {"measurement": "EC50", "setting": "LOVO; Homo sapiens, LoVo, log of EC50, negative, read-out: log(EC50) (converted)", "value": 1.05, "unit": "µM"}, {"measurement": "EC50", "setting": "LOVO; Homo sapiens, LoVo, read-out: EC50", "value": 1.05, "unit": "µM"}, {"measurement": "EC50", "setting": "LOVO; read-out: EC50", "value": 1.05, "unit": "µM"}, {"measurement": "EC50", "setting": "MG63; Homo sapiens, MG-63, 72 h, log of EC50, negative, read-out: log(EC50) (converted)", "value": 1.74, "unit": "µM"}, {"measurement": "EC50", "setting": "MG63; Homo sapiens, MG-63, 72 h, read-out: EC50", "value": 1.76, "unit": "µM"}, {"measurement": "EC50", "setting": "MG63; 72 h, read-out: EC50", "value": 1.75, "unit": "µM"}, {"measurement": "EC50", "setting": "IMR90; log of EC50, negative, read-out: log(EC50) (converted)", "value": 11, "unit": "µM"}, {"measurement": "EC50", "setting": "IMR90; read-out: EC50", "value": 10.9, "unit": "µM"}, {"measurement": "EC50", "setting": "IGROV1; Homo sapiens, IGROV-1, 72 h, log of EC50, negative, read-out: log(EC50) (converted)", "value": 1.91, "unit": "µM"}, {"measurement": "EC50", "setting": "IGROV1; Homo sapiens, IGROV-1, 72 h, read-out: EC50", "value": 1.88, "unit": "µM"}, {"measurement": "EC50", "setting": "IGROV1; 72 h, read-out: EC50", "value": 1.88, "unit": "µM"}]}
